{"source": "patent US11129845B2", "about": "“Compositions and methods for the delivery of nucleic acids” (CASE WESTERN RESERVE UNIVERSITY, priority 2014, dated 2021)", "key": {"GFP reporter protein": {"test_system": "GFP reporter protein", "experiment": "GFP reporter silencing in CHO-GFP cells (flow cytometry)", "type": "cell-based, Chinese hamster", "settings": "N/P=4, 48 h post-transfection, 100 nM siRNA", "experimental": "The RNAi induced silencing capabilities of each carrier was investigated in both a CHO-GFP non-cancerous cell line and an HT29-Luc (luciferase) human colon cancer cell line. Approximately 50,000 CHO-GFP cells were seeded into 6 well plates. When 25% confluency was achieved, the growth media were replaced with fresh serum free transfection media containing siRNA nanoparticles, at a dose of 100 nM siRNA. Negative controls included cells that were either treated with naked anti-GFP siRNA or with plain serum-free media. N/P ratios of 4, 6, 8, 10, 12, and 14 were tested for each carrier to determine the optimal nanoparticle formulation. […] After 4 h, the media were removed and replaced with fresh complete growth media, and cells were allowed to grow for another 24, 48, or 72 h post-transfection. At each of these time points, the CHO-GFP cells were rinsed twice with PBS, trypsinized, and fixed with 2% paraformaldehyde. […] Cell-Quest software was used to analyze the results and obtain mean fluorescence intensity (MFI) values.\nThe RNAi capabilities of each carrier were investigated by analyzing the silencing of a luciferase (Luc) reporter in HT29 cancer cells after anti-Luc siRNA therapy. […] Luciferase expression was determined using a Spectra Max luminometer upon the addition of a light-inducing substrate to the collected protein. […]"}, "[1]": {"test_system": "HT29 colon carcinoma cells", "experiment": "Cellular uptake of Alexa Fluor 488-siRNA via flow cytometry", "type": "cell-based, human", "settings": "HT29, N/P=18, 4 h, 100 nM Alexa Fluor 488-siRNA", "experimental": "Flow cytometry was used to investigate the cellular uptake of our delivery system in HT29 colon carcinoma cells. All carriers in the library were formulated into nanoparticles by condensing Alexa Fluor 488-labeled siRNA at the optimal N/P ratio determined by the above luciferase knockdown studies. Approximately 50,000 cancer cells were seeded in 6-well plates and allowed to grow until 30-50% confluence was reached. The cancer cells were transfected with a 100 nM siRNA dose in serum-free media. After 4 h, the transfection media were aspirated and the cells were washed twice with PBS. The cells were then trypsinized, collected, and fixed with 2% paraformaldehyde in PBS, prior to flow cytometric analysis."}, "HT29-Luc cells": {"test_system": "HT29-Luc cells", "experiment": "Live-cell confocal imaging of intracellular siRNA release", "type": "cell-based, human", "experimental": "Live-cell confocal imaging was utilized to image the intracellular release and dispersion of siRNA following transfection with the lipid carrier that performed best during the reporter knockdown studies. Approximately 50,000 HT29-Luc cells were seeded onto glass-bottom dishes (MatTek—Ashland, Mass.). Once 40% confluency was established, the cells were stained with 75 nM LysoTracker Red DND-99 (Invitrogen) for 30 min in normal growth medium. Afterwards, the cells were transfected with 100 nM Alexa Fluor 488-labeled anti-Luc siRNA in fresh serum-free media using the designed cationic lipid agent that performed the best in the above reporter knockdown experiments. Imaging commenced 5 min post-transfection using an Olympus FV1000 confocal microscope, and continued periodically over the first 2 h. Throughout the course of the study, all cells were kept alive on the microscope in a humidified weather station under normal gas conditions (5% CO2). Another image was acquired after 24 h following re-administration of the LysoTracker stain.\nConfocal microscopy was utilized to perform a time course study that analyzed the uptake and intracellular release kinetics of siRNA using the ECO delivery platform. Intracellular release and dispersion of siRNA is essential in RNA interference since the RNAi machinery is found in the cytosol. The images in FIG. 27 reveal that upon cellular uptake, the ECO nanoparticles are able to facilitate the escape of its siRNA payload from the endocytic pathway within the first 2 hours after transfection, avoiding lysosomal degradation. Such results are in congruence with the hemolytic activity data showing the membrane disruptive properties of the delivery system in pH environments characteristic of both endosomes and lysosomes."}, "[2]": {"experiment": "Nanoparticle diameter and polydispersity by dynamic light scattering (Malvern Zetasizer)", "type": "physicochemical", "settings": "for Nanoparticle diameter as measured by dynamic light scattering: siRNA-lipid complexes", "experimental": "The cationic lipid carriers are dissolved in ethanol at a stock concentration of 2.5 mM, while all siRNA is reconstituted in nuclease-free water at a 0.25 μg/μL (18.8 μM) concentration. Nanoparticles are formulated by mixing the carriers with siRNA for a period of 30 min in RNase-free phosphate buffer saline (PBS) at pre-specified N/P ratios (N=number of protonable amines in lipid, P=number of phosphate groups in the siRNA). In preparing the lipoplexes, proper dilutions were made such that the volume ratio of ethanol:water was kept constant at 1:20. Minimizing the amount of ethanol is important because it is effective in dissolving lipids, thus inhibiting particle formation. The diameters (as determined by dynamic light scattering) and zeta potentials of all nanoparticles were analyzed using a Malvern Zetasizer instrument at pH=7.4. siRNA encapsulation efficiency was calculated using a RiboGreen fluorescence-based assay from Invitrogen, designed specifically for detection of free RNA at […] wavelengths of 480 and 520 nm, respectively. Nanoparticles were created with all carriers in the library so that final siRNA concentrations were 1.6 μg/mL. A linear standard curve was utilized to calculate the encapsulation efficiencies from signal intensities measured by a SpectraMax microplate reader (Molecular Devices)."}}}
{"smiles": "CCCCCCCC/C=C\\CCCCCCCC(=O)N[C@@H](CS)C(=O)NCCNC(=O)CCN(CCN)CCC(=O)NCCNC(=O)[C@H](CS)NC(=O)CCCCCCC/C=C\\CCCCCCCC", "note": "[ECO, (1-aminoethyl)iminobis[N-(oleicylcysteinyl-1-amino-ethyl)propionamide]]", "values": [{"measurement": "relative GFP reporter expression", "setting": "GFP reporter protein", "result": "61.0±5.05", "unit": "%"}, {"measurement": "cellular uptake, mean fluorescence intensity (MFI)", "setting": "[1]", "result": "2571±90"}, {"measurement": "time to escape of siRNA payload from the endocytic pathway", "setting": "HT29-Luc cells; HT29-Luc, after transfection", "result": "≤ 90", "unit": "min"}, {"measurement": "time to evade lysosomal degradation", "setting": "HT29-Luc cells; HT29-Luc, post-transfection", "result": "≤ 1", "unit": "h"}, {"measurement": "time to escape of siRNA payload from the endocytic pathway", "setting": "HT29-Luc cells; after transfection (Example 3)", "result": "≤ 120", "unit": "min"}, {"measurement": "Polydispersity of siRNA-lipid complexes", "setting": "[2]; N/P = 2", "result": 0.245}, {"measurement": "Polydispersity of siRNA-lipid complexes", "setting": "[2]; N/P = 5", "result": 0.200}, {"measurement": "Polydispersity of siRNA-lipid complexes", "setting": "[2]; N/P = 8", "result": 0.157}, {"measurement": "Polydispersity of siRNA-lipid complexes", "setting": "[2]; N/P = 10", "result": 0.136}, {"measurement": "Polydispersity of siRNA-lipid complexes", "setting": "[2]; N/P = 15", "result": 0.005}, {"measurement": "Nanoparticle diameter as measured by dynamic light scattering", "setting": "[2]; N/P = 2", "result": "468 ± 43", "unit": "nm"}, {"measurement": "Nanoparticle diameter as measured by dynamic light scattering", "setting": "[2]; N/P = 5", "result": "448 ± 23", "unit": "nm"}, {"measurement": "Nanoparticle diameter as measured by dynamic light scattering", "setting": "[2]; N/P = 8", "result": "59 ± 11", "unit": "nm"}, {"measurement": "Nanoparticle diameter as measured by dynamic light scattering", "setting": "[2]; N/P = 10", "result": "78 ± 12", "unit": "nm"}, {"measurement": "Nanoparticle diameter as measured by dynamic light scattering", "setting": "[2]; N/P = 15", "result": "42 ± 9", "unit": "nm"}]}
